Laboratory results taken from publication PMC11413853, “Discovery of VU6007496: Challenges in the Development of an M1 Positive Allosteric Modulator Backup Candidate” (ACS Chemical Neuroscience, 2024).
pEC50: −log10 of the molar value.

Experiments:
mouse M1 = molecular target: T1, mouse M1 (Mus musculus, UniProt P12657); assay: Calcium mobilization assay, mouse M1 PAM; assay type: cell-based; details: PAM mode
T1 construct: expressed in transfected cells; host or cells: CHO (stated in general for all functional cell-based assays)

[1] = test system: 68 GPCRs, ion channels and transporters; assay: Lead Profiling Screen, radioligand displacement (panel summary); assay type: binding; details: 10 μM; all 68 targets
Procedure: In a 4-strain Ames assay, with and without S9, both 11 and 12 were negative.
Table S1. Eurofins Lead Profiling Screen Data
This is a radioligand binding panel of 67 targets including GPCRs, ion channels, transporters and nuclear hormones. Biochemical assay results are presented as the percent inhibition of specific binding at a 10 μM concentration of VU6007496 (Compound 11).
Target/Protein Species % Inhibition at
Androgen (Testosterone) Human -24
Calcium Channel L-Type, Rat 12
Calcium Channel L-Type, Rat -8
Calcium Channel N-Type Rat 8
Epidermal Growth Factor (EGF) Human 5
GABAA, Flunitrazepam, Central Rat -3
GABAA, Muscimol, Central Rat -1
Glutamate, Kainate Rat -19
Glutamate, NMDA, Agonism Rat 0
Glutamate, NMDA, Glycine Rat 0
Glutamate, NMDA, Phencyclidine Rat 7
Imidazoline I2, Central Rat -9

rCYP2J2 = assay: Substrate depletion with recombinant human CYPs, rCYP2J2; assay type: in vitro ADME
Description: To advance 11 as a candidate and into IND-enabling studies, we next needed to better understand its CYP profile to minimize drug–drug interactions in the clinic. […] We were pleased to see the contribution of another CYP beyond 3A4 for the metabolism of 11.[21] In parallel, we investigated the ability of PAM 11 to induce the expression of CYP450s (measuring mRNA) in cryopreserved human hepatocytes from three separate donors.

Dopamine D3 = assay: Eurofins radioligand binding; parameters: species or system Human; details: specific binding
Dopamine D4.4 = assay: Eurofins radioligand binding; parameters: species or system Human; details: specific binding
[2] = test system: GABAA, Flunitrazepam, Central; assay: Eurofins radioligand binding; parameters: species or system Rat; details: specific binding
Opiate μ (OP3, MOP) = assay: Eurofins radioligand binding; parameters: species or system Human; details: specific binding

T1 sequence (P12657 whole entry): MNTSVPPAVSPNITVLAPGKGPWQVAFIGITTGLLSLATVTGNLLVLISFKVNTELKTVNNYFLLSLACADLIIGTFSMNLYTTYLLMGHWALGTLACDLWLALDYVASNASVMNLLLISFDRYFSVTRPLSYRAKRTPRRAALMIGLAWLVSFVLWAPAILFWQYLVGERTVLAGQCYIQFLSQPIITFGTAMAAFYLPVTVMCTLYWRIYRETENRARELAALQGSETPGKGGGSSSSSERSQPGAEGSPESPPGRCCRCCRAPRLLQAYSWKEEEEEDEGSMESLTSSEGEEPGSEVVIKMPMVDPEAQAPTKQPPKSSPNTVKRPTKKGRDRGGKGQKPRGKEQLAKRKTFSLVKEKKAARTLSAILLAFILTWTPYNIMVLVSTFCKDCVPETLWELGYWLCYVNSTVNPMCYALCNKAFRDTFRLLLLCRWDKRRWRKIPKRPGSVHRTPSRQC

Cn1ccc(-c2ccc(Cc3cc(C(=O)NC4CCOCC4)nc4ccn(C)c34)cc2)n1 [compound 11]
pEC50 (mouse M1): 7.04
mouse M1 PAM ACh max (mouse M1): 66%
radioligand displacement, Lead Profiling Screen [1]: < 50%
share of hepatic CYP-mediated clearance, rCYP2J2 (rCYP2J2): 2.4%
% Inhibition at 10 µM (Dopamine D3): 8%
% Inhibition at 10 µM (Dopamine D4.4): 1%
% Inhibition at 10 µM [2]: -3%
% Inhibition at 10 µM (Opiate μ (OP3, MOP)): -4%
